# From article PMC12297887, “Enhanced Anticancer Potential of Pd(II)-Thiosemicarbazone Complexes: Selectivity, Mechanisms, and 3D Models” (Pharmaceutics, 2025)
# What was measured:
# [1] = tested on: A375 (skin cancer, melanoma); assay: Cell viability (MTT), A375; format: cell-based; conditions: 48 h of incubation
# Method: (§1) The cell lines used in the tests were A2780 (ovarian cancer), A2780cis (ovarian cisplatin resistant cancer), A549 (lung cancer), MRC5 (non-tumoral lung […]), MDA-MB-231 (triple-negative breast cancer), MCF-7 (breast cancer), SK-BR-3 (breast cancer), MCF-10A (non-tumoral breast cancer), and A375 (skin cancer—melanoma).
# (§2) The MCF-10A cell line was grown in DMEM/F-12 culture medium, supplemented with 5% horse serum, human epidermal growth factor (EGF) (20 ng/mL), hydrocortisone (0.05 mg/mL), insulin (0.01 mg/mL), penicillin (1%), streptomycin (1%), and L-glutamine (2 mM). The A2780, A2780cis, and MCF-7 cell lines were cultured in RPMI-1640 medium, and the other lines in DMEM medium; both culture media were supplemented with 10% (v/v) FBS (fetal bovine serum), antibiotics, and antimycotics. Cultivation was carried out in culture flasks stored in a humid incubator at 37 °C, with an atmosphere of 5% CO2.
# (§3) The plates were kept for 24 h in a humidified incubator (37 °C, 5% CO2), after which 0.75 μL of a DMSO solution (0.5% v/v) containing the compounds of interest was added to each well. The plates were then incubated for a further 48 h. The ratio of viability of cells was obtained using the MTT method. Through its reduction via the mitochondrial process, purple formazan is formed, which is proportional to cell viability. After incubating the microplates, 50 μL of a solution of MTT (1 mg∙mL^−1) in PBS was added to each well and the cells were incubated again in the oven for 4 h. Finally, the solution was removed from each well and 100 μL of isopropyl alcohol with 10% DMSO was added to solubilize the Formazan crystals. Absorbance measurements (540 nm) were then taken in each well using a BioTek EPOCH spectrophotometer (BioTek, Winooski, WT, USA). The data obtained was analyzed using Excel 360 and GraphPadPrism 8.0.2.
# A2780cis cells [2] = assay: Cell morphology assay (DAPI / Green Plasma fluorescence); format: cell-based; conditions: starting at ½ × IC50, 48 h
# Method: For morphological analysis by fluorescence with Green Plasma and DAPI, 1 × 10^4 cells/well of A2780cis were added to 96-well plates and incubated for 24 h. After this, the cells were treated with different concentrations of the compound and incubated for 48 h. Then the medium was removed and the cells were fixed with methanol for 5 min, and 50 μL of CellMasK Green Plasma membrane was added. After 5 min, 50 µL of DAPI was added and incubated at room temperature for a further 10 min. Images were taken using a fluorescence microscope (CELENA® S Logos Biosystems, Anyang-si, Republic of Korea) with the appropriate filters.
# A2780cis cells [3] = assay: Apoptosis assay (PE-Annexin V/7AAD, flow cytometry); format: cell-based; conditions: ½ × IC50, 24 h; control 86.4%
# Method: Apoptosis in A2780cis cells induced by the complexes was analyzed by flow cytometry; a PE-Annexin-V Apoptosis Detection kit (BD Biosciences) was employed. The cells (1 × 10^5 cells/well) were seeded in a 24-well plate. After incubation for 24 h, the cells were exposed to increasing concentrations of complex PdB1 for 24 h. After treatment, the cells were collected, centrifuged at 2000 rpm and 4 °C for 5 min, washed with ice-cold PBS, and resuspended in 150 µL of binding buffer. PE-Annexin V (2.5 µL) and 7ADD (2.5 µL) were added, which was followed by incubation in the dark at room temperature for 20 min. Then, the cells were centrifuged at 2000 rpm and 4 °C for 5 min, resuspended in 400 µL of binding buffer, and analyzed on an Accuri C6 (BD Biosciences) flow cytometer; 10,000 events were recorded. Fluorescence was quantified in triplicate with the Cell Quest software (BD Biosciences). Untreated cells were the negative control.
# MRC5 (non-tumoral lung) = assay: Cell viability (MTT), MRC5; format: cell-based; conditions: 48 h of incubation, non-tumor lung fibroblast
# Method: as §1, §2, §3
# A2780cis cells [4] = assay: Cell viability (LIVE/DEAD kit); format: cell-based; conditions: beginning at ½ × IC50, 48 h
# Method: 1.0 × 10^4 A2780cis cells were added to each well in a 96-well plate. After 24 h, the cells were treated with different concentrations of the compound and incubated again for 48 h. Then 100 µL of the LIVE/DEAD® solution prepared as described by the manufacturer was added. The images were acquired using a fluorescence microscope (CELENA® S logos biosystems) with a 4× objective, carried out in triplicate. Live and dead cells were counted using ImageJ 1.53 software and the IC50 value was calculated using GraphPad Prism 8.0.2.
# A2780cis cells [5] = assay: Clonogenic assay; format: cell-based; conditions: concentrations in relation to the IC50 of each complex, five days of treatment
# Method: For this test, 600 cells of the A2780cis strain were added to each well of a six-well microplate. After incubating for 24 h in a 5% CO2 atmosphere, different concentrations of the compounds were added to the wells and incubated again for five days. After this period, the culture medium was changed and the plates were incubated for a further five days. Finally, the culture medium was removed and washed with PBS. Subsequently, a solution of methanol and acetic acid (3:1 v/v) was added for five minutes, and then the cells were stained with methyl violet solution. The plates were washed with distilled water. After drying, they were photographed using the iBright™ FL1500 (ThermoFisher, Waltham, MA, USA) and analyzed using ImageJ 1.53 software.
# [6] = tested on: MDA-MB-231 (triple-negative breast cancer); assay: Cell viability (MTT), MDA-MB-231; format: cell-based, human
# Method: as §1, §2, §3
# A549 (lung cancer) = assay: Cell viability (MTT), A549; format: cell-based; conditions: 48 h of incubation, MTT
# Method: as §1, §2, §3
# SK-BR-3 (breast cancer) = assay: Cell viability (MTT), SK-BR-3; format: cell-based, human
# Method: as §1, §2, §3
# A2780cis spheroids = assay: Three-dimensional (spheroid) assay; format: cell-based; conditions: for cell death within spheroids (DAPI/PI staining): 48 h; for spheroid morphology (brightfield): 48 h of treatment
# Method: The 3D culture assay was performed with the A2780cis cell line using the Greiner Bio-One 96-well magnetic bioprinting kit. In total, 150 µL of magnetic nanoparticles were added to the cells grown in a 25 cm^2 bottle and incubated for 24 h. Then, 3750 cells/well were added to repellent 96-well plates, taken to the magnetic drive, and incubated for 4 days for the formation of […]. Once the spheroids had been obtained, they were treated with the compound PdB1 at different concentrations. Finally, images of the spheroids were recorded at 0 and 48 h, and images with fluorescence markers (DAPI and PI) were also obtained for the 48 h period using a logos biosystems CELENA® S fluorescence microscope.
# A2780 (ovarian cancer) = assay: Cell viability (MTT), A2780; format: cell-based
# Method: as §1, §2, §3
# [7] = tested on: MCF-10A (non-tumoral breast); assay: Cell viability (MTT), MCF-10A; format: cell-based, human; conditions: 48 h of incubation, non-tumorigenic breast line, read-out: IC50 MFC-10A
# Method: as §1, §2, §3
# MCF-7 (breast cancer) = assay: Cell viability (MTT), MCF-7; format: cell-based, human
# Method: as §1, §2, §3
# [8] = tested on: A2780cis (ovarian cisplatin resistant cancer); assay: Cell viability (MTT), A2780cis; format: cell-based
# Method: as §1, §2, §3
compound,measurement,setting,value
"CC(/C=C/c1ccccc1)=[N+]1NC(N)=[S+][Pd-]1([Cl])[PH](c1ccccc1)(c1ccccc1)c1ccccc1.[Cl-] [PdB1, [PdCl(L-B1)(PPh3)]Cl]",IC50,[1],1340 ± 80 nM
same,nuclear morphology (DAPI staining),A2780cis cells [2],chromatin condensation and nuclear fragmentation
same,"Q2-LL (viable cells, Q3 in the text)",A2780cis cells [3],37.1%
same,IC50,MRC5 (non-tumoral lung),1700 ± 200 nM
same,LIVE/DEAD viability,A2780cis cells [4],marked increase in red-fluorescing (non-viable) cells
same,colony formation,A2780cis cells [5],significantly reduced colony formation
same,IC50,"[6]; 48 h of incubation, MTT",1450 ± 100 nM
same,Selectivity index (SI) MDA-MB-231,[6]; IC50 MRC5 / IC50 MDA-MB-231,1.2
same,IC50,A549 (lung cancer),44800 ± 2000 nM
same,IC50,"SK-BR-3 (breast cancer); 48 h of incubation, MTT",1420 ± 70 nM
same,Selectivity index (SI) SK-BR-3,SK-BR-3 (breast cancer); IC50 MRC5 / IC50 SK-BR-3,1.2
same,cell death within spheroids (DAPI/PI staining),A2780cis spheroids; 12.5 µM,significant level of cell death
same,cell death within spheroids (DAPI/PI staining),A2780cis spheroids; 25 µM,complete disintegration
same,spheroid morphology (brightfield),A2780cis spheroids; 25 µM,marked reduction in compaction and cohesion
same,spheroid morphology (brightfield),A2780cis spheroids; lower concentrations,continued spheroid growth
same,IC50,"A2780 (ovarian cancer); 48 h of incubation, MTT",120 ± 10 nM
same,Selectivity index (SI) A2780,A2780 (ovarian cancer); IC50 MRC5 / IC50 A2780,14.2
same,IC50,[7],1580 ± 70 nM
same,IC50,"MCF-7 (breast cancer); 48 h of incubation, MTT",3790 ± 400 nM
same,Selectivity index (SI) MCF-7,MCF-7 (breast cancer); IC50 MRC5 / IC50 MCF-7,0.4
same,IC50,"[8]; 48 h of incubation, MTT",200 ± 10 nM
same,resistance factor (RF),[8]; IC50(A2780cis)/IC50(A2780),1.66
same,Selectivity index (SI) A2780cis,[8]; IC50 MRC5 / IC50 A2780cis,8.5
